Experimental findings from paper PMC5513091, “A novel Alzheimer’s disease drug candidate targeting inflammation and fatty acid metabolism” (Alzheimer's Research & Therapy, 2017) are described below.

For data set [1], the system named is HT22 cells expressing the brain-derived neurotrophic factor (BDNF) receptor transmembrane receptor kinase B. Briefly: BDNF-like activity (rescue from serum starvation). The data set is classed as cell-based. The note with it: Mus musculus, HT-22, read-out: Half-maximal effective concentration, BDNF-like activity. As for the experimental part:
(§1) The various phenotypic screening assays were conducted as previously described. Briefly, HT-22, primary cortical neurons, or MC65 was plated and exposed to the different environmental stresses. Cells were treated with varying concentrations of CAD-31, and half-maximal effective concentration (EC50) was determined on the basis of cell viability.
(§2) • An assay that mimics the dramatic loss of neurotrophic support in the old brain is the trophic factor withdrawal assay. Primary embryonic day 18 cortical cells are plated at low density in serum-free medium. At low density, the cells die within 2 days; they can be rescued by combinations of neurotrophic growth factors, but not by one alone ([19] and unpublished data). […] BDNF is a molecule that is also involved in promoting memory and neurogenesis and is reduced in the brain with age and in AD, as well as in other neurological disorders. BDNF has long been considered a drug target for AD [23]. […] A reduction in GSH is a common denominator of old age and essentially all chronic central nervous system (CNS) diseases. J147 and CAD-31 both effectively reduce oxidative stress, with EC50 of 6 nM and 20 nM, respectively. • CAD-31 also prevents loss of energy metabolism that leads to neuron cell death in an in vitro ischemia model. […]

The target in data set [2] is CYP 2D6 (Homo sapiens, UniProt P10635). Briefly: CYP inhibition. The data set is classed as in vitro ADME.
Chain of CYP 2D6 (P10635 whole entry): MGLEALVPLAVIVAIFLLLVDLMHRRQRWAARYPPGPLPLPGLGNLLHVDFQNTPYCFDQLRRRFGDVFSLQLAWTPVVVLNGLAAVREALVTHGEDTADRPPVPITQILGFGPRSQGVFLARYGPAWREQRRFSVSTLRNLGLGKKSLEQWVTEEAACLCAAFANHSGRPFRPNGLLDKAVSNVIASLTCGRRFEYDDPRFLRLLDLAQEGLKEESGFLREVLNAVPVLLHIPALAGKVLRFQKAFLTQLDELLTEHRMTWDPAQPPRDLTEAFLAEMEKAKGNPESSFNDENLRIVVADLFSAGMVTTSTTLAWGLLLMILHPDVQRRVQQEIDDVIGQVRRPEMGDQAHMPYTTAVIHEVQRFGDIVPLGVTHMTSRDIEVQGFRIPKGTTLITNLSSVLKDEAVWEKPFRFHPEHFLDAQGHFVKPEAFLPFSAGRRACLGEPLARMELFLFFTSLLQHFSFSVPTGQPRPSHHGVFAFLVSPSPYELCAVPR
Data set [3] concerns ubiquitinated proteins. Briefly: Immunoblotting of hippocampal tissue. The format is in vivo, mice. The settings on record: hippocampus. The method, then:
(§3) Hippocampal tissue samples were homogenized in 10 volumes of radioimmunoprecipitation assay (RIPA) lysis buffer (50 mM Tris, pH 7.5, 150 mM NaCl, 0.1% SDS, 0.5% deoxycholate, and 1% Nonidet P-40) containing a cocktail of protease and phosphatase inhibitors [[…] each of pepstatin A, aprotinin, phosphoramidon, and leupeptin; 0.5 mM 4-(2-aminoethyl)benzenesulfonyl fluoride hydrochloride; 1 mM ethylene glycol-bis(β-aminoethyl ether)-N,N,N′,N′-tetraacetic acid; 5 mM fenvalerate; and 5 mM cantharidin]. Samples were sonicated (2 × 10 seconds) and centrifuged first at 10,000 × g for 10 minutes and then at 100,000 × g for 60 minutes at 4 °C. The 100,000 × g pellet was taken up either in 6 M guanidine for Aβ analysis or in SDS sample buffer for Western blot analysis. Protein concentrations in the cell extracts were determined using a bicinchoninic acid protein assay (Pierce Biotechnology, Rockford, IL, USA). Equal amounts of protein were solubilized in 2.5× SDS sample buffer, separated on 12% SDS-polyacrylamide gels, transferred to Immobilon-P (EMD Millipore, Billerica, MA, USA), and immunoblotted with the antibodies indicated in the Materials subsection above. For Western blot experiments, protein levels were normalized to actin levels. An unpaired t test was performed to compare two groups at a single time point. When comparing multiple groups, one-way analysis of variance (ANOVA) followed by Tukey’s post hoc test was used. All statistical analysis was conducted using GraphPad InStat software.
In general terms: Immunoblotting shows a protein as a band on a membrane.

Data set [4] has as its system ACC-1. Briefly: Immunoblotting of hippocampal tissue. The data set is classed as in vivo, mice. The settings on record: hippocampus. As for the experimental part:
as §3

In data set [5] the test system is DCX. Briefly: Immunoblotting of hippocampal tissue. The format is in vivo, mice. The settings on record: hippocampus. The method, then:
as §3

The test system of data set [6] is autophagy markers LC3 and P62. In words: Immunoblotting of hippocampal tissue. The data set is classed as in vivo, mice. The note with it: data not shown. The method, then: as §3
Data set [7] deals with rat hippocampal neurons. Briefly: Aβ toxicity (extracellular). The data set is classed as cell-based. The note with it: Hippocampal neuron, read-out: Half-maximal effective concentration, Aβ toxicity (extracellular).
Data set [8] relates to Primary embryonic day 18 cortical cells. Briefly: Trophic factor withdrawal assay. The format is cell-based. The note with it: Cortical neurone; Cortical neuron; cell viability; read-out: Half-maximal effective concentration, Trophic factor withdrawal. As for the experimental part: as §1, §2
For data set [9], the target named is CYP 1A2 (Homo sapiens, UniProt P05177). Briefly: CYP inhibition. The data set is classed as in vitro ADME.
Chain of CYP 1A2 (P05177 whole entry): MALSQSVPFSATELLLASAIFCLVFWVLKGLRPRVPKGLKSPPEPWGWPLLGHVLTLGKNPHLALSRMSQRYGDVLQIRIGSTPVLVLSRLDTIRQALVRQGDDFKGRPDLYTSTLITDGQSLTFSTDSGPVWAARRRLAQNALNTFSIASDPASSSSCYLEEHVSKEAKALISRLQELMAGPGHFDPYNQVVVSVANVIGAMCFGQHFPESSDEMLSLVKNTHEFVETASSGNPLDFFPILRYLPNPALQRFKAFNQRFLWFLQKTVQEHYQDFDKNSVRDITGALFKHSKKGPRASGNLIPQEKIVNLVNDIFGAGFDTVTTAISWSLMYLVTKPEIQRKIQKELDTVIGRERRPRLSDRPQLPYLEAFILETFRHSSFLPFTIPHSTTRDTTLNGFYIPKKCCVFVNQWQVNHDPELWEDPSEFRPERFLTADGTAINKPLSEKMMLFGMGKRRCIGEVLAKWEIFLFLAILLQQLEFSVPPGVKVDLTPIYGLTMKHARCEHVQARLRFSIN
In data set [10] the test system is VCAM. Briefly: Immunoblotting of hippocampal tissue. The data set is classed as in vivo. The note with it: hippocampus, AD mice. The method, then: as §3
The subject of data set [11] is Drebrin. In words: Immunoblotting of hippocampal tissue. The format is in vivo. The settings on record: hippocampus, AD mice fed CAD-31 vs AD mice not fed. The method, then: as §3
In data set [12] the test system is eIF2α phosphorylation. Briefly: Immunoblotting of hippocampal tissue. The data set is classed as in vivo. The settings on record: hippocampus, WT and old AD mice, 200 ppm in chow 3 months. As for the experimental part: as §3
Data set [13] relates to OSCP. Briefly: Immunoblotting of hippocampal tissue. The format is in vivo. The settings on record: hippocampus, control and AD mice. The method, then: as §3
For data set [14], the system named is Arc-1. Briefly: Immunoblotting of hippocampal tissue. The data set is classed as in vivo. The settings on record: hippocampus, AD mice fed CAD-31 vs AD mice not fed. As for the experimental part: as §3
Data set [15] has as its system RAGE. Briefly: Immunoblotting of hippocampal tissue. The format is in vivo. The note with it: hippocampus, AD mice. As for the experimental part: as §3
The subject of data set [16] is clusterin. Briefly: Immunoblotting of hippocampal tissue. The settings on record: hippocampus, AD mice. The format is in vivo. The method, then:
as §3

Data set [17] deals with AMPK phosphorylation. Briefly: Immunoblotting of hippocampal tissue. The data set is classed as in vivo. The settings on record: hippocampus, WT and old AD mice, 200 ppm in chow 3 months. The method, then:
as §3

Data set [18] has as its system APPswe/PS1∆E9 mice. In words: Open-field assay. The data set is classed as in vivo. The note with it: old mice, 200 ppm in chow for 3 months; data not shown.

Some results are limits rather than exact numbers.

Take `Cc1ccc(N(/N=C/c2cccc(OC(F)(F)F)c2)C(=O)C(F)(F)F)c(C)c1` [CAD-31]: the EC50 is 0.095 µM in [1], 0.027 µM in [7] and 0.018 µM in data set [8]. The EC50 at 10 µM in [2] and in data set [9] was over 10 µM in each case. Further, the RIPA-insoluble ubiquitinated proteins entry in data set [3] (13-month-old WT and AD mice) was “reduced”. Also, the “ubiquitinated proteins in the soluble fraction” value in data set [3] (data not shown) was “unchanged”. The “phosphorylation of ACC-1” value in data set [4] (AD mice) is reported as “greatly increases the depressed level of phosphorylation in AD mice”; in [4] (WT mice), “decreases the phosphorylation of ACC-1 in WT mice”. Besides, in [4] (AD mice), the “total amount of ACC-1 protein” value was “not significantly reduced”. For the same molecule, the “expression of the NPC marker DCX” value in data set [5] is “increased the expression of the NPC marker DCX in the hippocampus”. Also, the “expression of the autophagy markers LC3 and P62” value in [6] was “did not, however, alter the expression”. For the same molecule, the VCAM expression entry in data set [10] is given as “reduced the expression”. In data set [11], the Drebrin expression entry is “increased expression of both proteins”. For the same molecule, the “eIF2α phosphorylation (ratio to total eIF2α)” value in data set [12] is “stimulates eIF2α phosphorylation in both WT and old AD mice”. In addition, the OSCP expression result in data set [13] is “increased expression of OSCP in both control and AD mice”. The Arc-1 expression result in data set [14] is listed as “increased expression of both proteins”. Besides, in [15], the RAGE expression entry is listed as “reduced the expression”. Besides, in [16], the clusterin expression result is on record as “reduced the expression”. In addition, in [17], the “AMPK activation by phosphorylation (ratio to total AMPK)” value is given as “enhanced”. In addition, the “open-field assay, overt toxicity” value in [18] is on record as “no differences between groups”.
